Assay results as given in patent publication US5475012A, “N-cyanoamidine derivatives as anti-influenza agents” (priority 1994, dated 1995).
≈ marks a conversion by molar mass, not a printed value.

Experiments:
[1] = test system: FluA/WSN; assay: Anti-influenza A activity, FluA/WSN (cytopathic effect, crystal violet stain, MDCK cells); type: cell-based, influenza A virus; details: for IC50: Influenza A virus, WSN, Table II, tested in MDCK cells, read-out: Median Inhibiting Concentration (IC50), FluA/WSN; for activity against A/WSN (in words): strain specificity
[2] = test system: FluA/Kaw; assay: microbe, parasite or virus in culture; type: cell-based, influenza A virus; details: for IC50: Influenza A virus, in Gallus gallus, read-out: Median Inhibiting Concentration (IC50), FluA/Kaw; for activity against A/Kaw (in words): strain specificity
[3] = test system: FluA/LA; assay: microbe, parasite or virus in culture; type: cell-based, influenza A virus; details: for IC50: Influenza A virus, in Gallus gallus, read-out: Median Inhibiting Concentration (IC50), FluA/LA; for activity against A/LA (in words): strain specificity
[4] = test system: FluB/Yama; assay: microbe, parasite or virus in culture; type: cell-based, influenza B virus; details: for IC50: Influenza B virus, read-out: Median Inhibiting Concentration (IC50), FluB/Yama; for activity against B/Yama (in words): strain specificity
[5] = in vitro; details: dog, mdck
[6] = in vitro; details: human, hep-2 cells
[7] = in vitro; details: human, a549 cells
[8] = in vitro; details: human, mrc-5 cells
[9] = in vitro; details: african green monkey, vero cells

For `NC12CC3CC(CC(C3)C1)C2` [Amantadine, reference compound], the IC50 [1] was 16 mg/L (≈ 106 µM), the IC50 [2] was 0.5 to 1.6 mg/L (≈ 3.31 to 10.6 µM) and the IC50 [3] was 0.16 mg/L (≈ 1.06 µM). The IC50 [4] was > 16 mg/L, the MCC [5] was > 100 µg/mL and the MCC [6] was > 100 µg/mL. For the same compound, the MCC [7] was > 100 µg/mL, the MCC [8] was > 100 µg/mL and the MCC [9] was > 100 µg/mL.
For `CC(Cc1ccccc1)(C(=NC#N)NCCc1ccccc1)c1ccccn1` (stereo not drawn) [Example 1, N'-Cyano-α-methyl-N-(2-phenylethyl)-α-(phenylmethyl)-2-pyridineethanimidamide], the IC50 [1] was 0.16 to 0.5 mg/L (≈ 0.434 to 1.36 µM), the “activity against A/WSN (in words)” value [1] was “active” and the IC50 [2] was 0.5 to 1.6 mg/L (≈ 1.36 to 4.34 µM). For the same compound, the “activity against A/Kaw (in words)” value [2] was “active”, the IC50 [3] was > 16 mg/L and the “activity against A/LA (in words)” value [3] was “inactive”. For the same compound, the IC50 [4] was > 16 mg/L, the “activity against B/Yama (in words)” value [4] was “inactive” and the MCC [5] was > 50 µg/mL. The MCC [6] was > 50 µg/mL, the MCC [7] was > 50 µg/mL and the MCC [8] was > 50 µg/mL. For the same compound, the MCC [9] was > 50 µg/mL.
For `CC(Cc1ccccc1)(C(=NC#N)NCc1ccco1)c1ccccn1` (stereo not drawn) [Example 2, N'-Cyano-N-(2-furanylmethyl)-α-methyl-α-(phenylmethyl)-2-pyridineethanimidamide], the IC50 [1] was 0.16 to 0.5 mg/L (≈ 0.465 to 1.45 µM), the “activity against A/WSN (in words)” value [1] was “active” and the IC50 [2] was 0.5 to 1.6 mg/L (≈ 1.45 to 4.65 µM). For the same compound, the “activity against A/Kaw (in words)” value [2] was “active”, the IC50 [3] was > 16 mg/L and the “activity against A/LA (in words)” value [3] was “inactive”. The IC50 [4] was > 16 mg/L, the “activity against B/Yama (in words)” value [4] was “inactive” and the MCC [5] was > 50 µg/mL. The MCC [6] was > 50 µg/mL, the MCC [7] was > 50 µg/mL and the MCC [8] was > 50 µg/mL. For the same compound, the MCC [9] was > 50 µg/mL.
In the case of `CSC(=NC#N)NCCSCc1cccnc1Nc1ccccc1` [Example 3, N'-cyano-N-[2-[[[2-(phenylamino)-3-pyridinyl]methyl]thio]ethyl]carbamimidothioic acid methyl ester], the MCC [5] is reported as > 100 µg/mL, the MCC [6] is reported as > 100 µg/mL and the MCC [7] is reported as > 100 µg/mL. For the same compound, the MCC [8] was > 100 µg/mL and the MCC [9] was > 100 µg/mL.
For `NC(=O)c1ncn([C@@H]2O[C@H](CO)[C@@H](O)[C@H]2O)n1` [Ribavirin, reference compound], the IC50 [1] was 1.6 to 5 mg/L (≈ 6.55 to 20.5 µM), the IC50 [2] was > 16 mg/L and the IC50 [3] was > 16 mg/L. For the same compound, the IC50 [4] was 1.6 to 5 mg/L (≈ 6.55 to 20.5 µM), the MCC [5] was > 100 µg/mL and the MCC [6] was > 100 µg/mL. The MCC [7] was > 100 µg/mL, the MCC [8] was > 100 µg/mL and the MCC [9] was > 100 µg/mL.
